In ChEMBL document CHEMBL1147852, “Synthesis and biology of bis-xylosylated dihydroxynaphthalenes” (2007):

The molecules below were run on T-24 (assay: Antiproliferative activity against human T24 cells). Details: read-out: ED50 (the source's name).
Type: functional
O[C@@H]1[C@@H](O)[C@H](Oc2cccc3c(O[C@@H]4OC[C@@H](O)[C@H](O)[C@H]4O)cccc23)OC[C@H]1O showed an EC50 of 400 µM.
With O[C@@H]1[C@@H](Oc2ccc3ccc(O[C@@H]4OC[C@@H](O)[C@H](O)[C@H]4O)cc3c2)OC[C@H](O)[C@H]1O the EC50 was 450 µM.
O[C@@H]1[C@@H](O)[C@H](Oc2ccc3cc(O[C@@H]4OC[C@@H](O)[C@H](O)[C@H]4O)ccc3c2)OC[C@H]1O was tested, and the EC50 was greater than 400 µM.
For O[C@@H]1[C@@H](O)[C@H](Oc2cc(O[C@@H]3OC[C@@H](O)[C@H](O)[C@H]3O)c3ccccc3c2)OC[C@H]1O, the EC50 was greater than 400 µM.
O[C@@H]1[C@@H](O)[C@H](Oc2ccc(O[C@@H]3OC[C@@H](O)[C@H](O)[C@H]3O)c3ccccc23)OC[C@H]1O was tested, and the EC50 was 400 µM.
